Read-outs that look alike come from different tables or passages of the source.
Experiments:
A. baumannii FabI = A. baumannii FabI (Acinetobacter baumannii, UniProt D0CAD5); assay: Differential scanning fluorimetry; type: binding; conditions: relative to the holoenzyme
Protocol: supplemented with 100 µg/mL ampicillin at 37°C until OD600 reached 0.6-0.7. The cells were induced with 1mM IPTG and incubated for 20 hours at 18°C and spun down at 8000 rpm for 15 minutes. Cell pellet was resuspended in the lysis buffer (50 mM Tris-HCl pH 8.0, 500 mM Na Cl, 20 mM imidazole, 10% glycerol, 0.5 mM TCEP, protease inhibitor and Lysonase) and passed through microfluidizer followed by centrifugation and filtration to remove cell debris. The clarified lysate was supplemented with 20 mM imidazole and passed over a HisTrap column (Cytiva) pre-equilibrated with the wash buffer (50 mM Tris-HCl pH 8.0, 500 mM NaCl, 20 mM imidazole, 10% glycerol, 0.5 mM TCEP). The column was washed with the wash buffer and eluted over a 20-500 mM imidazole gradient. […]
Recombinant E. coli and A. baummani FabI enzymes were used in a continuous NADH absorbance assay (20 µL in 384w format). […] After shaking for 5 seconds the reaction was monitored at NADH absorbance (340nm, 25°C) using a Molecular Devices SpectraMax M5 microplate reader. The linear portion of the progress curve was fit using plate-reader software. Percentage activity was calculated relative to DMSO only and no-substrate controls in each plate and the data were fit to Morrison’s quadratic using Graphpad Prism 9.3 to obtain apparent inhibition constant (Ki app) values. […]

Pseudomonas aeruginosa = assay: MIC, Pseudomonas aeruginosa strains; type: cell-based
Protocol: II. Materials and Methods for Biological Experiments
S. aureus ATCC 29213 and E. coli MG1655 were obtained from the American Type Culture Collection (ATCC). E. coli BW25113 and E. coli JW5503 were obtained from the Keio Collection. AR-bank strains were obtained from the Centers for Disease Control and Prevention and FDA Antibiotic Resistance Isolate Bank.
Antimicrobial susceptibility tests
Susceptibility testing was performed in biological triplicate, unless noted otherwise, using the micro-dilution broth method as outlined by the Clinical and Laboratory Standards Institute. Bacteria were cultured with cation-adjusted Mueller Hinton broth (Sigma Aldrich, catalogue number: 90922). […]
Error bars represent the standard error of the mean of three biological replicates. All compounds evaluated in biological assays were ≥95% pure.

A. baumannii FabI, sequence (D0CAD5 entry or part of it): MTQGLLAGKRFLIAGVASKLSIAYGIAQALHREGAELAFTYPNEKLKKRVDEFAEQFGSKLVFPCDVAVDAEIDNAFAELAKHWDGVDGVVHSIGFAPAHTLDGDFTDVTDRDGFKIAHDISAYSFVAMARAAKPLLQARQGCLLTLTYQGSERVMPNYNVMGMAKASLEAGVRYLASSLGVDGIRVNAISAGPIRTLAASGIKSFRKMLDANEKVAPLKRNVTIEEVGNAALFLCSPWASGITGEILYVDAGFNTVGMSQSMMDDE

Cc1c(CN(C)C(=O)/C=C/c2cnc3c(c2)CC[C@@H](N)C(=O)N3)oc2ccccc12 [(R)-7]
18 ± 0.5 °C: ΔTm (A. baumannii FabI)

Cc1c(CN(C)C(=O)/C=C/c2cnc3c(c2)CC[C@H](N)C(=O)N3)oc2ccccc12 [fabimycin]
> 128 µg/mL: MIC (Pseudomonas aeruginosa; Pseudomonas aeruginosa, ATCC27853, P. aeruginosa ATCC 27853, read-out: MIC) | MIC (Pseudomonas aeruginosa; Pseudomonas aeruginosa, P. aeruginosa AR-0232, read-out: MIC)
>128 µg/mL: MIC (Pseudomonas aeruginosa; P. aeruginosa AR-0229) | MIC (Pseudomonas aeruginosa; P. aeruginosa AR-0230) | MIC (Pseudomonas aeruginosa; P. aeruginosa AR-0231) | MIC (Pseudomonas aeruginosa; P. aeruginosa AR-0233) | MIC (Pseudomonas aeruginosa; P. aeruginosa AR-0234) | MIC (Pseudomonas aeruginosa; P. aeruginosa AR-0235) | MIC (Pseudomonas aeruginosa; P. aeruginosa AR-0609) | MIC (Pseudomonas aeruginosa; P. aeruginosa AR-0610)
24 ± 0.5 °C: ΔTm (A. baumannii FabI)

Reference: article PMC9413440, “An Iterative Approach Guides Discovery of the FabI Inhibitor Fabimycin, a Late-Stage Antibiotic Candidate with In Vivo Efficacy against Drug-Resistant Gram-Negative Infections” (ACS Central Science, 2022)
